Earlier results as cited in patent publication US20040167145A1, “Active ingredient combination for the pharmacological therapy of nicotine dependence” (priority 2001, published 2004).

Settings: clinical studies; compared with 8% for placebo

CC(NC(C)(C)C)C(=O)c1cccc(Cl)c1 (stereo not shown) [bupropion]
1-year abstinence rate: 28%
